Test results: patent publication US8691824B2, “Certain kynurenine-3-monooxygenase inhibitors, pharmaceutical compositions, and methods of use thereof” (CHDI Foundation, Inc., priority 2008, dated 2014)

target: T1, KMO mouse enzyme (Mus musculus, UniProt Q91WN4); assay: L-Kynurenine hydroxylation to 3OH-KYN by LC/MS, mouse liver mitochondrial KMO; type: biochemical; conditions: compound at 10 μM, read-out: INH.Mouse @ 10 μM
T1 construct: KMO enzyme prepared at Evotec from mouse liver (4-6 weeks old) via mitochondria isolation; from tissue; host or cells: mouse liver (4-6 weeks old), mitochondria isolation
Experimental: A method of monitoring L-Kynurenine (KYN) hydroxylation to form 3-Hydroxy-Kynurenine (3OH-KYN) by LC/MS is described. Product is quantified by multiple reaction monitoring (MRM method).
• Compound: Stock concentrations: 10 mM in 100% DMSO • Enzyme: KMO enzyme prepared at Evotec from mouse liver (4-6 weeks old) via mitochondria isolation as described in the literature • Substrate: L-Kynurenine (Sigma: Cat# K3750, stock concentration: 10 mM in 100 mM potassium phosphate buffer, pH 7.4) Assay Conditions: • Buffer: 100 mM potassium phosphate, pH 7.4, 200 μM NADPH, 0.4 U/ml G6P-DH (Glucose 6-phosphate Dehydrogenase), 3 mM G6P (D-Glucose 6-phosphate) • Assay Volume: 40 μl • Plate Format: 384 well plate, transparent (Matrix) • Read-Out: product (3OH-KYN) quantification using product specific MRM • Reader: LC/MS/MS Assay Protocol: • prepare serial dilution (factor 3) of compound in 100% DMSO (top concentration=10 mM, 100% DMSO) • [8 points: 10 mM; 3.33 mM; 1.11 mM; 0.37 mM; 0.12 mM; 0.04 mM; 0.0137 mM; 0.0045 mM, 0.0015 mM] • prepare […] concentrated solution of each compound concentration (top concentration 300 μM, 3% DMSO) in assay buffer • [concentrations: 300 μM; 100 μM; 33.3 μM; 11.1 μM; 3.70 μM; 1.23 μM; 0.41 μM; 0.137 μM] • prepare substrate (10 mM) at concentration of 1 mM in assay buffer • assay mix: 4 μl compound/well of each concentration+24 μl assaybuffer/well+8 μl KMO mouse enzyme+4 μl 1 mM substrate (final concentration=100 μM) • [final compound top concentration: 30 μM; 0.3% DMSO] • [final compound bottom concentration: 0.0137 μM; 0.3% DMSO] • positive control: 4 μl 50 μM FCE28833 in assay buffer, 0.5% DMSO [final assay concentration=5 μM]+24 μl assaybuffer/well+8 μl KMO mouse enzyme+4 μl 1 mM substrate [final concentration=100 μM] • negative control: 28 μl assay buffer/well+8 μl KMO mouse enzyme+4 μl 1 mM substrate [final concentration=100 μM] • incubate 40 min at RT • add 40 μl/well 10% trichloro acetic acid in water to stop the assay and precipitate protein • centrifuge plate for 3 min at 4000 rpm • product detection by LC/MS (injection of 20 μl/well, 2 fold overfill of the 10 μl sample loop) Data Analysis:
IC50's are calculated using automated fitting algorithm (A+Analysis).
Using procedures similar to those described herein, the following compounds were assayed for activity.

T1 sequence (Q91WN4 whole entry): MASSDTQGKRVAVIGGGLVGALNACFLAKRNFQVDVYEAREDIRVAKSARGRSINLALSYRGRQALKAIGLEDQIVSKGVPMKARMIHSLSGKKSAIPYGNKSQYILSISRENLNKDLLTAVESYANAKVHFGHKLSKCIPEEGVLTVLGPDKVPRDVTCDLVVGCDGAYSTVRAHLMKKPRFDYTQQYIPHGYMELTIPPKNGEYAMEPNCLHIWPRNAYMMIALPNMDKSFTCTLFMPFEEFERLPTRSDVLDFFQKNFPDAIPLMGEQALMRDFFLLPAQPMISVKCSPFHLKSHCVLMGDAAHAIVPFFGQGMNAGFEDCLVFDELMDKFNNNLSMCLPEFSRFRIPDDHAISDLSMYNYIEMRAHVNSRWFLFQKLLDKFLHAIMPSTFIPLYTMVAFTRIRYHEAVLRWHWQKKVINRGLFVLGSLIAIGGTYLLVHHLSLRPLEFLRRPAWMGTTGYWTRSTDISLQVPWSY

| SMILES | inhibition at 10 µM [%] |
| --- | --- |
| Cc1ncc(NC(=O)CC2CON=C2c2ccc(Cl)c(Cl)c2)cn1 (stereo not drawn) [2-[3-(3,4-Dichloro-phenyl)-4,5-dihydro-isoxazol-4-yl]-N-(2-methyl-pyrimidin-5-yl)-acetamide] | 81.2 |
| Cc1cc(NC(=O)CC2CON=C2c2ccc(Cl)c(Cl)c2)on1 (stereo not drawn) [2-[3-(3,4-Dichloro-phenyl)-4,5-dihydro-isoxazol-4-yl]-N-(3-methyl-isoxazol-5-yl)-acetamide] | 64 |
| O=C(CC1CON=C1c1ccc(Cl)c(Cl)c1)Nc1cccnc1 (stereo not drawn) [2-[3-(3,4-Dichloro-phenyl)-4,5-dihydro-isoxazol-4-yl]-N-pyridin-3-yl-acetamide] | 77.2 |
| O=C(CC1CON=C1c1ccc(Cl)c(Cl)c1)Nc1cncnc1 (stereo not drawn) [2-[3-(3,4-Dichloro-phenyl)-4,5-dihydro-isoxazol-4-yl]-N-pyrimidin-5-yl-acetamide] | 82.7 |
| NC(=O)CC1CON=C1c1ccc(Cl)c(Cl)c1 (stereo not drawn) [2-[3-(3,4-Dichloro-phenyl)-4,5-dihydro-isoxazol-4-yl]-acetamide] | 60.4 |
| O=C(O)CC1CON=C1c1cccc(Cl)c1 (stereo not drawn) [3-(3-Chloro-phenyl)-4,5-dihydro-isoxazol-4-yl]-acetic acid] | 106 |
| COC(=O)CC1CON=C1c1ccc(Cl)c(Cl)c1 (stereo not drawn) [[3-(3,4-Dichloro-phenyl)-4,5-dihydro-isoxazol-4-yl]-acetic acid methyl ester] | 102 |
| O=C(O)CC1CON=C1c1ccc(Cl)c(Cl)c1 (stereo not drawn) [[3-(3,4-Dichloro-phenyl)-4,5-dihydro-isoxazol-4-yl]-acetic acid] | 101 |
| COC(=O)CC1CC(c2ccc(Cl)c(Cl)c2)=NO1 (stereo not drawn) [[3-(3,4-Dichloro-phenyl)-4,5-dihydro-isoxazol-5-yl]-acetic acid methyl ester] | 88.4 |

The next lines start with the values.

| inhibition at 10 µM [%] | SMILES |
| --- | --- |
| 93.3 | O=C(O)CC1CC(c2ccc(Cl)c(Cl)c2)=NO1 (stereo not drawn) [[3-(3,4-Dichloro-phenyl)-4,5-dihydro-isoxazol-5-yl]-acetic acid] |
| 84.5 | CC1ON=C(c2ccc(Cl)c(Cl)c2)C1CC(=O)O (stereo not drawn) [[3-(3,4-Dichloro-phenyl)-5-methyl-4,5-dihydro-isoxazol-4-yl]-acetic acid] |
| 74.7 | O=C(O)Cc1conc1-c1ccc(Cl)c(Cl)c1 [[3-(3,4-Dichloro-phenyl)-isoxazol-4-yl]-acetic acid] |
| 60.8 | CCOC(=O)Cc1cc(-c2ccc(Cl)c(Cl)c2)no1 [[3-(3,4-Dichloro-phenyl)-isoxazol-5-yl]-acetic acid ethyl ester] |
| 66.4 | COC(=O)Cc1cc(-c2ccc(Cl)c(Cl)c2)no1 [[3-(3,4-Dichloro-phenyl)-isoxazol-5-yl]-acetic acid methyl ester] |
| 74.5 | O=C(O)Cc1cc(-c2ccc(Cl)c(Cl)c2)no1 [[3-(3,4-Dichloro-phenyl)-isoxazol-5-yl]-acetic acid] |
